The source of these data is patent US20240207265A1, “TREATMENT OF CNS DISEASES WITH sGC STIMULATORS” (Tisento Therapeutics Inc., priority 2021, published 2024).

The structures appear in SMILES notation. A value given as a limit tells only on which side of the number the result lay.

The experiment addresses T1, human α2β1 sGC isozyme (Homo sapiens, UniProt P33402+Q02153).
T1 construct: host or cells: CHO-K1
T1 sequence (P33402 1-732): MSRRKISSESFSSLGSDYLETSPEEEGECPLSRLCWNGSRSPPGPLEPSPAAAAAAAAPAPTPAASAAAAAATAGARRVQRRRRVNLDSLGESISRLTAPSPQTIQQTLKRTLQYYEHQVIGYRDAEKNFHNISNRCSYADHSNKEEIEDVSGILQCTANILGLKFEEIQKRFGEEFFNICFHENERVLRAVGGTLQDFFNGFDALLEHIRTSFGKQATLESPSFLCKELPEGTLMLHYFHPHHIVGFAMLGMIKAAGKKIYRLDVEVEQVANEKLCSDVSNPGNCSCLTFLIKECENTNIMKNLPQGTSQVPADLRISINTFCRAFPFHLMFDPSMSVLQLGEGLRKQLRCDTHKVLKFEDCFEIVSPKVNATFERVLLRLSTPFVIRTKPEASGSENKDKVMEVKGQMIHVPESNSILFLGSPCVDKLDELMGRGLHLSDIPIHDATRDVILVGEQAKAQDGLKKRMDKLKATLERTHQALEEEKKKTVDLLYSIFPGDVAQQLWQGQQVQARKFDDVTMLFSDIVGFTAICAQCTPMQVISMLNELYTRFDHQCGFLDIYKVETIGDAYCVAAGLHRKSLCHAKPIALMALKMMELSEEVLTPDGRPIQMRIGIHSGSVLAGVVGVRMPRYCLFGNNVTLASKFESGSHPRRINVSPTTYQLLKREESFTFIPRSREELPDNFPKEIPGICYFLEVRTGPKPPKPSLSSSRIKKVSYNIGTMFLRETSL
T1 sequence (Q02153 1-619): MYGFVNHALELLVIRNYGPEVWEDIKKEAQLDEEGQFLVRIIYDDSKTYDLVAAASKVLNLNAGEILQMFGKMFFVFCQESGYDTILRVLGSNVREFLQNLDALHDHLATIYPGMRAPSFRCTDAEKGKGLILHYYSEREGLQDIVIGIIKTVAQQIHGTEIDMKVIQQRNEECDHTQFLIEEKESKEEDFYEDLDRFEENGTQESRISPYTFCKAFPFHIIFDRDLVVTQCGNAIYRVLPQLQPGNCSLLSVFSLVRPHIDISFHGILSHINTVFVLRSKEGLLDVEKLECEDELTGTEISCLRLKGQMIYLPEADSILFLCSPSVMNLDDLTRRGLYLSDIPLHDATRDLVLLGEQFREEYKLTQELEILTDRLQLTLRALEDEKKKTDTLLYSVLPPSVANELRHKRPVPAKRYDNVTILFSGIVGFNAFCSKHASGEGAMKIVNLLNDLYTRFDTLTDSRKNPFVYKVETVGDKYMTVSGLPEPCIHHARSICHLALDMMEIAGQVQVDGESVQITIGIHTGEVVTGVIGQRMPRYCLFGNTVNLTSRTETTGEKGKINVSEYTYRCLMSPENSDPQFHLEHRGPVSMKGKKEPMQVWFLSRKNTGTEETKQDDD
Briefly: cGMP assay in CHO-K1 cells stably expressing human α2β1 sGC isozyme. It counts as cell-based. The conditions noted are these: 10 μM DETA-NONOate. Here is the method:
sGC stimulators were dissolved in DMSO as a 10 mM solution and stored at −20° C. To achieve desired test concentrations, stock concentrations were serially diluted into DMSO and then diluted to the appropriate concentration in assay buffer.
CHO-K1 cells stably transfected with human α2β1 sGC isozyme (generated by GenScript for Ironwood) were cultured in F-12K medium (ATCC catalog #30-2004) with 10% fetal calf serum, 4 μg/mL puromycin (Gibco catalog #A11138-03) and 0.4 mg/mL of geneticin (Gibco catalog #10131-027) in a 95% humidified atmosphere containing 5% CO2 in air at 37° C. For GC activity assays, cells were seeded in 384 well poly-D-lysine coated flat bottom plates (Fisher Scientific #08-774-311) in either 50 μL or 70 μL medium at a density of either 3×10^4 cells/well or 15×10^3, respectively. Cells were incubated for 24 hours at 37° C. in a humidified chamber supplemented with 5% CO2.
For each test concentration, the compound was diluted in 100% DMSO to 100-fold of its final assay concentration. Immediately prior to the assay, the solution was diluted 20-fold into HBSS containing calcium, magnesium, and 50 μM DETA-NONOate (5× the final assay concentration). Medium was removed and cells were washed once with 40 μL of HBSS. Cells were then incubated with 40 μL of a solution containing 0.5 mM IBMX in HBSS for 15 min at 37° C. 10 μL from the sGC stimulator/HBSS/DETA-NONOate plate was added to the cells, which were incubated for an additional 20 min at 37° C. Final DMSO concentration was 1%, final DETA-NONOate concentration was 10 μM; and final compound concentrations were 30,000 nM, 6000 nM, 1200 nM, 240 nM, 48 nM, 9.6 nM, 1.92 nM, 0.384 nM, 0.077 nM, 0.015 nM, or 0.003 nM.
Following incubation with compound, assay buffer was removed and 50 μL of ice-cold 10% acetic acid+150 ng/mL internal standard (+3 cGMP) was added to each well. Samples were incubated on ice for 30-60 min. Following centrifugation at 4° C. for 5 min at 1000×g to pellet cell debris, the supernatant was transferred to a clean plate and the samples analyzed for cGMP content.
Data were analyzed with a 4-parameter fit (log(agonist) vs. response-variable slope) using GraphPad Prism Software v.8. The EC50 was interpolated from the curve fit and is defined as the concentration at which the compound elicits 50% of its maximal response. When the experiment was carried out multiple times for a given compound, the geometrical mean of all experiments is reported.
For `Oc1nc(-c2cn3ccnc3c(Cc3cccc(F)c3F)n2)ncc1F` [Compound I-4, 2-(8-(2,3-Difluorobenzyl)imidazo[1,2-a]pyrazin-6-yl)-5-fluoropyrimidin-4-ol], the EC50 is at most 100 nM.
With `Oc1nc(-c2cn3ccnc3c(Cc3cc(F)ccc3F)n2)ncc1F` [Compound I-20, 5-fluoro-2-(8-(2,5-difluorobenzyl)imidazo[1,2-a]pyrazin-6-yl)pyrimidin-4-ol] the figure was at most 100 nM; with `Cc1cc(F)c(Cc2nc(-c3ncc(F)c(O)n3)cn3ncnc23)cc1F` [Compound I-19, 5-Fluoro-2-(8-(2,5-difluoro-4-methylbenzyl)-[1,2,4]triazolo[1,5-a]pyrazin-6-yl)pyrimidin-4-ol], at most 100 nM; with `Cc1cc(F)c(Cc2nc(-c3nccc(O)n3)cn3ccnc23)cc1F` [Compound I-15, 2-(8-(2,5-difluoro-4-methylbenzyl)imidazo[1,2-a]pyrazin-6-yl)pyrimidin-4-ol], 100 to 1000 nM.
`Oc1nc(-c2cn3ncnc3c(Cc3ccccc3F)n2)ncc1F` [Compound I-23] came in with an EC50 of 100 to 1000 nM.
Take `Oc1nc(-c2cn3c(F)cnc3c(Cc3cc(F)ccc3F)n2)ncc1F` [Compound I-5]: the EC50 was at most 100 nM.
The figure for `Oc1nc(-c2cn3ccnc3c(Cc3ccccc3)n2)ncc1F` [Compound I-2, 2-(8-Benzylimidazo[1,2-a]pyrazin-6-yl)-5-fluoropyrimidin-4-ol] is 100 to 1000 nM.
With `Oc1nc(-c2cn3ccnc3c(Cc3cc(F)ccc3F)n2)ncc1Cl` [Compound I-16, 5-chloro-2-(8-(2,5-difluorobenzyl)imidazo[1,2-a]pyrazin-6-yl)pyrimidin-4-ol] the figure was at most 100 nM.
With `Oc1nc(-c2cn3ccnc3c(Cc3ccccc3F)n2)ncc1F` [Compound I-21] the figure was at most 100 nM; with `Cc1cc(F)c(Cc2nc(-c3ncc(F)c(O)n3)cn3c(F)cnc23)cc1F` [Compound I-18], at most 100 nM.
